1 compound from US7943175B2, “Calixarene based dispersible colloidal systems in the form of nanoparticles” (Nanoport S.A., priority 2001, dated 2011) can be followed below.

The series has as its system embryo insect cells (trichiopusia ni). The series can be described thus: Toxicity test on embryo insect cells. The series is classed as cell-based. The source says:
Second, p-dodecanoyl-calix[4]arene has been tested on embryo insect cells (trichiopusia ni). Viability values of more than 80% have been found.

For the compound `CCCCCCCCCCCC(=O)c1cc2c(O)c(c1)Cc1cc(C(=O)CCCCCCCCCCC)cc(c1O)Cc1cc(C(=O)CCCCCCCCCCC)cc(c1O)Cc1cc(C(=O)CCCCCCCCCCC)cc(c1O)C2` [p-dodecanoyl-calix[4]arene], the Viability result is “more than 80%”.
